Laboratory results as given in article PMC6429183, “Identification of Compounds That Inhibit Estrogen-Related Receptor Alpha Signaling Using High-Throughput Screening Assays” (Molecules, 2019).
Like-named read-outs stand apart in the source and are kept apart here. Values belong to the compound of their own block, whether it stands above or below them.

Key:
[1] = biological target: T1, ERRα with PGC-1α (PGC/ERR pathway) (Homo sapiens, UniProt P11474)
T1 sequence (P11474 1-423): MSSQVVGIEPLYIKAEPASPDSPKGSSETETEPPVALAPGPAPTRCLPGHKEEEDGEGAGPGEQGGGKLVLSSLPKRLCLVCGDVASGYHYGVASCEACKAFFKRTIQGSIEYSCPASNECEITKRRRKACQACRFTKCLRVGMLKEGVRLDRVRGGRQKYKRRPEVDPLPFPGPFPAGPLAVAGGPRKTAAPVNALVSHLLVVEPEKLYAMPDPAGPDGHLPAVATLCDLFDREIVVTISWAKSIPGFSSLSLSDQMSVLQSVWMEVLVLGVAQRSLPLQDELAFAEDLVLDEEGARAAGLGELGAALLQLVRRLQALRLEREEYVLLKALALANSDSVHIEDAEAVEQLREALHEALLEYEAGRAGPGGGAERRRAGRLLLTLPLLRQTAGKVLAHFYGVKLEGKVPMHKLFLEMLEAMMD
Experimental: (§3) The ERR reporter HEK293 cells were cultured in high glucose DMEM medium (ThermoFisher Scientific, Inc., Waltham, MA, USA) supplemented with 10% fetal bovine serum (FBS; ThermoFisher Scientific, Inc.), 4 mM of L-glutamine (ThermoFisher Scientific, Inc.), 1 mM of sodium pyruvate (ThermoFisher Scientific, Inc.), 100 U/mL of penicillin and 100 mg/mL of streptomycin (ThermoFisher Scientific, Inc.). PGC/ERR reporter HEK293 cells were cultured in the same medium as the ERR reporter HEK293 cells with an additional 1 μg/mL puromycin (ThermoFisher Scientific, Inc.) as the selection marker for PGC-1α expression.
(§4) The DMSO-only compound plates at the beginning and end of the compound plate stack were used to correct the data set by applying an in-house pattern correction algorithm [90]. The half maximum inhibition values (IC50) for each compound and maximum response (efficacy) values were obtained by fitting the concentration-response curves of each compound to a four-parameter Hill equation [91]. […] For each reading, the activity outcome of a test compound was first categorized by the average curve rank from the triplicate runs and the reproducibility calls. The final activity outcome of each compound was based on the ERR antagonist readout activity and cell viability counter screen.

[2] = test system: ERR reporter HEK293 cells; experiment: CellTiter-Fluor cell viability assay multiplexed with ERR reporter assay; assay type: cell-based; conditions: for ERR-HEK293 Primary Viability EC50: primary qHTS, viability counter screen
Experimental: (§1) ERR or PGC/ERR reporter HEK293 cells suspended in culture medium without puromycin were dispensed at 2500 cells/5 μL/well in tissue culture–treated 1536-well white assay plates (Greiner Bio-One North America, Monroe, NC, USA) using a Thermo Scientific Multidrop Combi (ThermoFisher Scientific, Inc.). […] After the cells were incubated at 37 °C with 5% CO2 for 6 h, 23 nL of compounds or control, XTC790, was transferred into the assay plates using a Wako Pintool station (Wako Automation, San Diego, CA, USA). The assay plates were incubated at 37 °C for 18 h, followed by the addition of 5 μL ONE-Glo luciferase reagent (Promega, Madison, WI, USA) using a Flying Reagent Dispenser (Aurora Discovery, Carlsbad, CA, USA). After 30 min of incubation at room temperature, the luminescence intensity of the assay plates was quantified using a ViewLux plate reader (PerkinElmer, Shelton, CT, USA). The assays were performed three times for each compound concentration. These ERR and PGC/ERR reporter assays were multiplexed with the CellTiter-Fluor Cell Viability Assay (Promega), a fluorescence-based cell viability assay, to assess compound cytotoxicity.
The qHTS data were analyzed as described previously. […] The DMSO-only compound plates at the beginning and end of the compound plate stack were used to correct the data set by applying an in-house pattern correction algorithm. The half maximum inhibition values (IC50) for each compound and maximum response (efficacy) values were obtained by fitting the concentration-response curves of each compound to a four-parameter Hill equation [91]. […] For each reading, the activity outcome of a test compound was first categorized by the average curve rank from the triplicate runs and the reproducibility calls. The final activity outcome of each compound was based on the ERR antagonist readout activity and cell viability counter screen.

[3] = biological target: T2, estrogen-related receptor alpha (ERRα) (Homo sapiens, UniProt P11474)
T2 sequence (P11474 1-423): T1 sequence (P11474 1-423)

[4] = biological target: T1, ERRα with PGC-1α (PGC/ERR pathway); experiment: PGC/ERR reporter (luciferase) qHTS assay, PGC/ERR-HEK293
Experimental: as §3, §4

[5] = test system: PGC/ERR reporter HEK293 cells; experiment: CellTiter-Fluor cell viability assay multiplexed with PGC/ERR reporter assay; assay type: cell-based; conditions: for PGC/ERR-HEK293 Follow-Up Viability EC50: follow-up screen; for PGC/ERR-HEK293 Primary Viability EC50: primary qHTS
Experimental: as §1
The qHTS data were analyzed as described previously. Each titration point was normalized relative to the positive control compound (XCT790 = −100%) and DMSO-only wells (0%) according to the following equation: % Activity = [(Vcompound − VDMSO)/(VDMSO − Vpos)] × 100, where Vcompound denotes the compound well values, Vpos denotes the median value of the positive control wells, and VDMSO denotes the median values of the DMSO-only wells. The DMSO-only compound plates at the beginning and end of the compound plate stack were used to correct the data set by applying an in-house pattern correction algorithm. The half maximum inhibition values (IC50) for each compound and maximum response (efficacy) values were obtained by fitting the concentration-response curves of each compound to a four-parameter Hill equation [91]. Compounds were designated as Class 1–4 according to the type of concentration–response curve observed. For each reading, the activity outcome of a test compound was first categorized by the average curve rank from the triplicate runs and the reproducibility calls. The final activity outcome of each compound was based on the ERR antagonist readout activity and cell viability counter screen.

[6] = biological target: T2, estrogen-related receptor alpha (ERRα); experiment: ERR reporter (luciferase) antagonist qHTS assay, ERR-HEK293; conditions: for ERR-HEK293 Follow-Up Efficacy: follow-up screen; for ERR-HEK293 Follow-Up Efficacy / ERR-HEK293 Primary Efficacy: relative to XCT790 = −100%; for ERR-HEK293 Primary Efficacy: primary qHTS, DMSO = 0%
COX8α = experiment: qRT-PCR mRNA expression of ERR downstream gene COX8α; assay type: cell-based; conditions: ERR reporter cells, vs GAPDH, DMSO = 0%
Experimental: (§2) Total RNA was isolated from treated ERR reporter cells using an RNeasy Mini Kit (Qiagen, Germantown, MD, USA), homogenized using a QIAshredder (Qiagen), and reverse transcribed with a High-Capacity RNA-to-cDNA™ Kit (ThermoFisher Scientific, Inc.) following the manufacturers’ instructions. Expression of ERRα, COX8α, IDH3α, PPARα, COX4I1, and cytochrome c genes was normalized against GAPDH. All primers were purchased from ThermoFisher Scientific, Inc. Real-time PCR assays were performed in 384-well plates on a QuantStudio 5 (Applied Biosystems, Foster City, CA, USA) with TaqMan™ Gene Expression Master Mix (ThermoFisher Scientific, Inc.). Induction values were calculated using the equation: Fold = 2^ΔΔCt, where ΔCt represents the differences in cycle threshold numbers between each of the target genes and GAPDH, and ΔΔCt represents the relative change in these differences between control and treatment groups. Experimental data are presented as a mean of triplicate determinations ± SD. Statistical comparisons were made by t-test, while the statistical significance was set at p values of <0.05 (light blue), <0.01 (medium blue), and <0.001 (dark blue).

IDH3α = experiment: qRT-PCR mRNA expression of ERR downstream gene IDH3α; assay type: cell-based; conditions: ERR reporter cells, vs GAPDH, DMSO = 0%
Experimental: as §2

cytochrome c = experiment: qRT-PCR mRNA expression of ERR downstream gene cytochrome c; assay type: cell-based; conditions: ERR reporter cells, vs GAPDH, DMSO = 0%
Experimental: as §2

[7] = ERR-HEK293 Follow-Up EC50, follow-up (confirmation) screen, mean ± SD, triplicate
[8] = ERR-HEK293 Primary EC50, primary qHTS, 18 h, 15 concentrations, mean ± SD, triplicate

Compound: CO/C=C(/C(=O)OC)c1ccccc1COc1cccc(C(F)(F)F)n1 [Picoxystrobin]
PGC/ERR-HEK293 Follow-Up Efficacy [1]: −43.6 ± 14.2%
PGC/ERR-HEK293 Primary Efficacy [1]: −44.2 ± 4.37%
EC50 ([2]; Homo sapiens, HEK293, follow-up screen, viability, read-out: ERR-HEK293 Follow-Up Viability EC50 (converted)): 32100 nM
ERR-HEK293 Primary Viability EC50 [2]: Inactive
ERR-HEK293 Follow-Up Efficacy [3]: −86.7 ± 15.8%
ERR-HEK293 Primary Efficacy [3]: −83.9 ± 10.6%
EC50 ([4]; PGC/ERR-HEK293 Follow-Up EC50, follow-up screen, mean ± SD, triplicate): 4190 ± 2970 nM
EC50 ([4]; PGC/ERR-HEK293 Primary EC50, primary qHTS, 18 h, mean ± SD, triplicate): 2790 ± 2400 nM
PGC/ERR-HEK293 Follow-Up Viability EC50 [5]: Inactive
PGC/ERR-HEK293 Primary Viability EC50 [5]: Inactive
EC50 [6, 7]: 3420 ± 393 nM
EC50 [6, 8]: 807 ± 279 nM

Compound: CC[C@@]1(O)C(=O)OCc2c1cc1n(c2=O)Cc2c-1nc1ccccc1c2/C=N/OC(C)(C)C [Gimatecan]
ERR-HEK293 Follow-Up Viability EC50 ([2]; follow-up screen, viability): Inactive
ERR-HEK293 Primary Viability EC50 [2]: Inactive
EC50 ([4]; PGC/ERR-HEK293 Follow-Up EC50): 3340 nM
EC50 ([4]; PGC/ERR-HEK293 Primary EC50): 2530 nM
PGC/ERR-HEK293 Follow-Up Efficacy ([4]; follow-up screen, negative = antagonism, positive = agonism): −130 ± 20.6%
PGC/ERR-HEK293 Primary Efficacy ([4]; primary qHTS, negative = antagonism, positive = agonism): −115 ± 2.20%
PGC/ERR-HEK293 Follow-Up Viability EC50 [5]: Inactive
PGC/ERR-HEK293 Primary Viability EC50 [5]: Inactive
EC50 ([6]; ERR-HEK293 Follow-Up EC50): 44.2 nM
EC50 ([6]; ERR-HEK293 Primary EC50): 49.7 nM
ERR-HEK293 Follow-Up Efficacy [6]: −145 ± 16.0%
ERR-HEK293 Primary Efficacy [6]: −117 ± 14.5%

PGC/ERR-HEK293 Follow-Up EC50 ([4]; follow-up screen, mean ± SD, triplicate): Inactive Inactive
PGC/ERR-HEK293 Primary EC50 ([4]; primary qHTS, 18 h, mean ± SD, triplicate): Inactive Inactive
EC50 [6, 7]: 1750 ± 314 nM
EC50 [6, 8]: 875 ± 59.3 nM
ERR-HEK293 Follow-Up Efficacy [6]: −67.7 ± 6.20%
ERR-HEK293 Primary Efficacy [6]: −51.8 ± 5.77%
Compound: O=c1[nH]c(=O)n([C@H]2C[C@H](O)[C@@H](CO)O2)cc1C(F)(F)F [Trifluridine]
ERR-HEK293 Follow-Up Viability EC50 ([2]; follow-up screen, viability): Inactive
ERR-HEK293 Primary Viability EC50 [2]: Inactive
PGC/ERR-HEK293 Follow-Up Viability EC50 [5]: Inactive Inactive
PGC/ERR-HEK293 Primary Viability EC50 [5]: Inactive Inactive
Percent inhibition of mRNA gene expression, COX8α (COX8α; 1 µM): 43.2 ± 21.8%

Compound: CO/N=C(/C1=NOCCO1)c1ccccc1Oc1ncnc(Oc2ccccc2Cl)c1F [Fluoxastrobin]
Percent inhibition of mRNA gene expression, IDH3α (IDH3α; 7 µM): 13.3 ± 2.44%
Percent inhibition of mRNA gene expression, Cytochrome C (cytochrome c; 7 µM): 25.5 ± 7.81%

Compound: Nc1ccc2cc3ccc(N)cc3nc2c1 [Proflavin hemisulfate]
Percent inhibition of mRNA gene expression, IDH3α (IDH3α; 3 µM): 24.9 ± 20.6%
Percent inhibition of mRNA gene expression, Cytochrome C (cytochrome c; 3 µM): 20.6 ± 8.69%
Percent inhibition of mRNA gene expression, COX8α (COX8α; 3 µM): 34.8 ± 26.7%
